Experimental findings from US11472769B2, “SSAO inhibitors and use thereof” (Eccogene (Shanghai) Co., Ltd., priority 2019, dated 2022) are described below.

SMILES strings stand for the structures.

A word on the IC50: it is the concentration at which inhibition is half-maximal.

The target of this test is recombinant hSSAO (Homo sapiens (Human), UniProt Q16853). Kind of test: SSAO Activity Assay (MAO-Glo assay kit). The format is biochemical. The following applies: 40 μM substrate, 30 mins pre-incubation. As for the experimental part: The biological activities of the compounds of the present application can be assessed with methods and assays known in the art. For example, the potency of the compounds of the present application can be evaluated with an SSAO Activity Assay. Briefly, compounds of the present application can be applied to recombinant hSSAO, hMAO-A, and hMAO-B isoforms and the amine oxidase activity of the enzymes are measured after the addition and subsequent oxidation of the luminogenic substrate (e.g., with the MAO-Glo assay kit from Promega). The IC50 can be calculated, for example, by fitting the dose response curve using a 4-parameter non-linear regression routine.
Chain of recombinant hSSAO (Q16853 whole entry, canonical isoform): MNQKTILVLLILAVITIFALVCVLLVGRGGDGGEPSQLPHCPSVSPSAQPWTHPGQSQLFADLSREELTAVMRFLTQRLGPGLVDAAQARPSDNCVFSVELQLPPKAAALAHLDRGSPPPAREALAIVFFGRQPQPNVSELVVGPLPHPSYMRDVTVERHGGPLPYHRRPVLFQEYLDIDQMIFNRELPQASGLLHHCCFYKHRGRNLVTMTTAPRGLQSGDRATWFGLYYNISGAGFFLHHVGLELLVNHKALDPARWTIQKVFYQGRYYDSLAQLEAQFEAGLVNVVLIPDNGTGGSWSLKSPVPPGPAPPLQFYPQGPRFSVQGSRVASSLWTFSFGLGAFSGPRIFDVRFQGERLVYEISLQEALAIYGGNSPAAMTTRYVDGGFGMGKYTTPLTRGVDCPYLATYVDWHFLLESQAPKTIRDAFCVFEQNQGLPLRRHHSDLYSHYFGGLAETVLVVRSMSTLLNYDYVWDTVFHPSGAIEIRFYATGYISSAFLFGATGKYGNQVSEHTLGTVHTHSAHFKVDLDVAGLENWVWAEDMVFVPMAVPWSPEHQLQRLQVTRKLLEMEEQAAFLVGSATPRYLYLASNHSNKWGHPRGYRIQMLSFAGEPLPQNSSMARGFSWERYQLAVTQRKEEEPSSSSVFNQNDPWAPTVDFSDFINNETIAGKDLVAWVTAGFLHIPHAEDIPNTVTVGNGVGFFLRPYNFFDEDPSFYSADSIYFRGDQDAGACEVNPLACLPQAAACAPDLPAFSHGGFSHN
Amine oxidase activity of recombinant hSSAO, hMAO-A, and hMAO-B isoforms are measured using the MAO-Glo assay kit (Promega, V1402). Ten nL test compounds (with DMSO as vehicle, 0.1% v/v for hSSAO, hMAO-A and hMAO-B) were added into assay plates by Echo, and pre-incubated with 5 μL of enzyme for 30 mins at room temperature before the addition of 5 μL of luminogenic substrate. The substrate concentration is 40 μM for human recombinant SSAO, 40 μM for human recombinant MAO-A, and 4 μM for human recombinant MAO-B. The hSSAO and hMAO-A assays were conducted in the MAO-A reaction buffer in the kit, and the MAO-B assay was conducted in the MAO-B reaction buffer. Oxidation of the substrate was conducted for 1 hr, before the addition of detecting reagent according the manufacture's protocol. The IC50 value of the tested compounds was calculated by fitting the dose response curve using a 4-parameter non-linear regression routine.
On to `CC(C)C(=O)N1CC(CS(=O)(=O)c2ccc(OC/C(=C/F)CN)cc2)C1` [compound 52, (E)-1-(3-(((4-((2-(aminomethyl)-3-fluoroallyl)oxy)phenyl)sulfonyl)methyl)azetidin-1-yl)-2-methylpropan-1-one], for which the IC50 fell in the range of 20 to 100 nM.

For `CC(C)C(=O)N1CCC(C)(CS(=O)(=O)c2ccc(OC/C(=C/F)CN)cc2)CC1` [compound 53, (E)-1-(4-(((4-((2-(aminomethyl)-3-fluoroallyl)oxy)phenyl)sulfonyl)methyl)-4-methylpiperidin-1-yl)-2-methylpropan-1-one], the IC50 is 20 to 100 nM.

With `CC(C)C(=O)Nc1ccc(CS(=O)(=O)c2ccc(OC/C(=C/F)CN)cc2)cc1` [compound 45, (E)-N-(4-(((4-((2-(aminomethyl)-3-fluoroallyl)oxy)phenyl)sulfonyl)methyl)phenyl)isobutyramide], the IC50 is 20 to 100 nM.

As for `CC1(C)COC(CS(=O)(=O)c2ccc(OC/C(=C/F)CN)cc2)CO1` (stereo not drawn) [compound 2, (E)-2-((4-(((5,5-dimethyl-1,4-dioxan-2-yl)methyl)sulfonyl)phenoxy)methyl)-3-fluoroprop-2-en-1-amine], the IC50 fell in the range of 20 to 100 nM.

In the case of `N#CC1(COCS(=O)(=O)c2ccc(OC/C(=C/F)CN)cc2)CCOCC1` [compound 32, (E)-4-((((4-((2-(aminomethyl)-3-fluoroallyl)oxy)phenyl)sulfonyl)methoxy)methyl)tetrahydro-2H-pyran-4-carbonitrile], the IC50 was in the range of 20 to 100 nM.

Regarding `CC1(COCS(=O)(=O)c2ccc(OC/C(=C/F)CN)cc2)CCOCC1` [compound 31, (E)-3-fluoro-2-((4-((((4-methyltetrahydro-2H-pyran-4-yl)methoxy)methyl)sulfonyl)phenoxy)methyl)prop-2-en-1-amine], the IC50 is 20 to 100 nM.

Consider `COCC(COC)CS(=O)(=O)c1ccc(OC/C(=C/F)CN)cc1` [compound 25, (E)-3-fluoro-2-((4-((3-methoxy-2-(methoxymethyl)propyl)sulfonyl)phenoxy)methyl)prop-2-en-1-amine], for which the IC50 lay in the range of 20 to 100 nM.

`NC/C(=C\F)COc1ccc(S(=O)(=O)CC2(O)CCOCC2)cc1` [compound 10, (E)-4-(((4-((2-(aminomethyl)-3-fluoroallyl)oxy)phenyl)sulfonyl)methyl)tetrahydro-2H-pyran-4-ol]: the IC50 is 20 to 100 nM.

Regarding `COCC(COC)OCS(=O)(=O)c1ccc(OC/C(=C/F)CN)cc1` [compound 36, (E)-2-((4-((((1,3-dimethoxypropan-2-yl)oxy)methyl)sulfonyl)phenoxy)methyl)-3-fluoroprop-2-en-1-amine], the IC50 fell in the range of 20 to 100 nM.

Turning to `NC/C(=C\F)COc1ccc(S(=O)(=O)CC23CCC(C4(NC(=O)C5CC5)CC4)(CC2)CC3)cc1` [compound 16, (E)-N-(1-(4-(((4-((2-(aminomethyl)-3-fluoroallyl)oxy)phenyl)sulfonyl)methyl)bicyclo[2.2.2]octan-1-yl)cyclopropyl) cyclopropanecarboxamide], the concentration for half-maximal inhibition (IC50) was 20 to 100 nM.

As for `CCN(CC(C)CS(=O)(=O)c1ccc(OC/C(=C/F)CN)cc1)C(=O)C(C)C` (stereo not drawn) [compound 97, (E)-N-(3-((4-((2-(aminomethyl)-3-fluoroallyl)oxy)phenyl)sulfonyl)-2-methylpropyl)-N-ethylisobutyramide], the IC50 was 20 to 100 nM.

As for `NC/C(=C\F)COc1ccc(S(=O)(=O)CC2(CN3CCCCC3=O)CC2)cc1` [compound 106, (E)-1-((1-(((4-((2-(aminomethyl)-3-fluoroallyl)oxy)phenyl)sulfonyl)methyl)cyclopropyl)methyl)piperidin-2-one], the IC50 fell in the range of 20 to 100 nM.

For the molecule `NC/C(=C\F)COc1ccc(S(=O)(=O)COC2CCN(C(=O)C3CCCC3)CC2)cc1` [compound 27, (E)-(4-(((4-((2-(aminomethyl)-3-fluoroallyl)oxy)phenyl)sulfonyl)methoxy)piperidin-1-yl)(cyclopentyl)methanone], the IC50 is 20 to 100 nM.

As to `NC/C(=C\F)COc1ccc(S(=O)(=O)Cn2ccccc2=O)cc1` [compound 121, (E)-1-(((4-((2-(aminomethyl)-3-fluoroallyl)oxy)phenyl)sulfonyl)methyl)pyridin-2(1H)-one], the IC50 was 20 to 100 nM.

As for `C[C@@H](CS(=O)(=O)c1ccc(OC/C(=C/F)CN)cc1)N1CCCCC1=O` [compound 108, (S,E)-1-(1-((4-((2-(aminomethyl)-3-fluoroallyl)oxy)phenyl)sulfonyl)propan-2-yl)piperidin-2-one], the IC50 is 20 to 100 nM.

As for `CC(C)(CN1CCOCC1)CS(=O)(=O)c1ccc(OC/C(=C/F)CN)cc1` [compound 115, (E)-2-((4-((2,2-dimethyl-3-morpholinopropyl)sulfonyl)phenoxy)methyl)-3-fluoroprop-2-en-1-amine], the IC50 is 20 to 100 nM.

With `NC/C(=C\F)COc1ccc(S(=O)(=O)Cc2cnc(N3CCCC3)nc2)cc1` [compound 103, (E)-3-fluoro-2-((4-(((2-(pyrrolidin-1-yl)pyrimidin-5-yl)methyl)sulfonyl)phenoxy)methyl) prop-2-en-1-amine], the IC50 lay in the range of 20 to 100 nM.

In the case of `CC(C)n1ccc(CS(=O)(=O)c2ccc(OC/C(=C/F)CN)cc2)cc1=O` [compound 101, (E)-4-(((4-((2-(aminomethyl)-3-fluoroallyl)oxy)phenyl)sulfonyl)methyl)-1-isopropylpyridin-2(1H)-one], the IC50 was in the range of 20 to 100 nM.

As to `NC/C(=C\F)COc1ccc(S(=O)(=O)CC2CCN(C(=O)C3CC3)CC2)c(Cl)c1` [compound 60, (E)-(4-(((4-((2-(aminomethyl)-3-fluoroallyl)oxy)-2-chlorophenyl)sulfonyl)methyl)piperidin-1-yl)(cyclopropyl)methanone], the IC50 lay within 20 to 100 nM.

In the case of `CC(C)C(=O)N1CCC(C)(COCS(=O)(=O)c2ccc(OC/C(=C/F)CN)cc2)CC1` [compound 33, (E)-1-(4-((((4-((2-(aminomethyl)-3-fluoroallyl)oxy)phenyl)sulfonyl)methoxy)methyl)-4-methylpiperidin-1-yl)-2-methylpropan-1-one], the IC50 was in the range of 20 to 100 nM.

For `NC/C(=C\F)COc1ccc(S(=O)(=O)CC23CCC(C(=O)N4CCC(F)(F)CC4)(CC2)CC3)cc1` [compound 63, (E)-(4-(((4-((2-(aminomethyl)-3-fluoroallyl)oxy)phenyl)sulfonyl)methyl)bicyclo[2.2.2]octan-1-yl)(4,4-difluoropiperidin-1-yl)methanone], the IC50 fell in the range of 20 to 100 nM.

Turning to `NC/C(=C\F)COc1ccc(S(=O)(=O)COC2CCOCC2)cc1` [compound 26, (E)-3-fluoro-2-((4-((((tetrahydro-2H-pyran-4-yl)oxy)methyl)sulfonyl)phenoxy)methyl)prop-2-en-1-amine], the IC50 was in the range of 20 to 100 nM.

On to `CC1(COCS(=O)(=O)c2ccc(OC/C(=C/F)CN)cc2)CCN(C(=O)C(C)(C)C)CC1` [compound 34, (E)-1-(4-((((4-((2-(aminomethyl)-3-fluoroallyl)oxy)phenyl)sulfonyl)methoxy)methyl)-4-methylpiperidin-1-yl)-2,2-dimethylpropan-1-one], for which the IC50 was in the range of 20 to 100 nM.

On to `CC(C)N(C)C(=O)C(C)(C)CS(=O)(=O)c1ccc(OC/C(=C/F)CN)cc1` [compound 95, (E)-3-((4-((2-(aminomethyl)-3-fluoroallyl)oxy)phenyl)sulfonyl)-N-isopropyl-N,2,2-trimethylpropanamide], for which the IC50 was in the range of 100 to 500 nM.

As for `CC(C)(C)C(=O)N1CCC(CS(=O)(=O)c2ccc(OC/C(=C/F)CN)cc2)CC1` [compound 41, (E)-1-(4-(((4-((2-(aminomethyl)-3-fluoroallyl)oxy)phenyl)sulfonyl)methyl)piperidin-1-yl)-2,2-dimethylpropan-1-one], the IC50 is 20 to 100 nM.

On to `NC/C(=C\F)COc1ccc(S(=O)(=O)CC23CCC(C(=O)NC4CCC4)(CC2)C3)cc1` [compound 143, (E)-4-(((4-((2-(aminomethyl)-3-fluoroallyl)oxy)phenyl)sulfonyl)methyl)-N-cyclobutylbicyclo[2.2.1]heptane-1-carboxamide], for which the IC50 was in the range of 20 to 100 nM.

In the case of `NC/C(=C\F)COc1ccc(S(=O)(=O)CN2CCCC2=O)cc1` [compound 117, (E)-1-(((4-((2-(aminomethyl)-3-fluoroallyl)oxy)phenyl)sulfonyl)methyl)pyrrolidin-2-one], the IC50 lay within 100 to 500 nM.

With `NC/C(=C\F)COc1ccc(S(=O)(=O)CC2CCOCC2)c(F)c1` [compound 6, (E)-3-fluoro-2-((3-fluoro-4-(((tetrahydro-2H-pyran-4-yl)methyl)sulfonyl)phenoxy)methyl) prop-2-en-1-amine], the IC50 lay in the range of 20 to 100 nM.

As to `COC1(CS(=O)(=O)c2ccc(OC/C(=C/F)CN)cc2)CCOCC1` [compound 11, (E)-3-fluoro-2-((4-(((4-methoxytetrahydro-2H-pyran-4-yl)methyl)sulfonyl)phenoxy)methyl) prop-2-en-1-amine], the IC50 fell in the range of 20 to 100 nM.

Regarding `CN(C(=O)C1CC1)C12CCC(CS(=O)(=O)c3ccc(OC/C(=C/F)CN)cc3)(CC1)CC2` [compound 78, (E)-N-(4-(((4-((2-(aminomethyl)-3-fluoroallyl)oxy)phenyl)sulfonyl)methyl)bicyclo[2.2.2]octan-1-yl)-N-methylcyclopropanecarboxamide], the IC50 lay within 20 to 100 nM.
